Measured values taken from publication PMC11233931, “Remodeling tumor‐associated macrophage for anti‐cancer effects by rational design of irreversible inhibition of mitogen‐activated protein kinase‐activated protein kinase 2” (MedComm, 2024).

Tests used:
[1] = system: p38α-MK2 complex; design: method as in PMID 29549113; details: cited from earlier work
[2] = system: MK2; design: method as in PMID 12147348, PMID 35691544; details: cited from earlier work
[3] = system: p-Hsp27 (Ser82) and p-MK2 (T334) in THP-1 derived macrophages; experiment: Western blot of MK2 signaling in LPS-stimulated THP-1 derived macrophages; assay type: cell-based, human; details: 1 h preincubation, LPS 100 ng/mL 30 min
Protocol: (§1) FIGURE 4 Targeting cellular MK2 signaling with irreversible inhibition by compound 11. (A and B) RT‐PCR analysis of IL‐1β, TNF‐α, and IL‐6 expression in Lipopolysaccharides (LPS)‐stimulated THP‐1 (A) and RAW264.7 (B) Cells, with pre‐treatment of compound 11 for 3 h followed by LPS (3 h) stimulation. (C) The inhibitory effects of compound 11 on TNF‐α and IL‐6 production in LPS‐stimulated RAW264.7 macrophages for 24 h, measured by ELISA. (D and E) Compound 11, alongside CC‐99677 and PF‐3644022, suppressed MK2 pathway activation, validated through western blot analysis post‐LPS stimulation. Cells were preincubated with the specified compounds for 1 h prior to LPS stimulation (100 ng/mL, 30 min). (F) Distinguishes the mode of action between compound 11 and CC‐99677. The complex structure of a small molecule and MK2 (3R2Y) with the same parent nucleus as compound 11 is shown in cyans, and the complex structure of a small molecule and MK2 (3FYJ) with the same parent nucleus as CC‐99677 is shown in orange. (G–I) The effect of indicated inhibitor on Hsp27 phosphorylation following inhibitor washout. Cells were pretreated with indicated compounds for 1 h and then washed to remove free compound and incubated for a further indicated time before activation with LPS. In (A–C), LPS (100 ng/mL) served as the stimulation control, while untreated cells were the baseline control. The data represent as mean ± SD from triplicates, with statistical analysis conducted via one‐way analysis of variance (ANOVA) (^## p < 0.01, ^### p < 0.001 vs. stimulation control; ^***p < 0.001 vs. baseline control).
Next, the efficacy of compound 11 in cellular MK2 signaling inhibition was evaluated by examining both p‐MK2 and p‐Hsp27 at Ser82 levels, the latter being a direct downstream substrate of p‐MK2. […] We try to explore this interesting phenomenon by superimposing the complex crystal structure (3FYJ) that harboring the same skeleton as CC‐99677 (Figure 4F). […] In that way, CC‐99677 binding to MK2 kinase after pre‐incubation with cells and after LPS stimulation may cause the difference in the spatial conformation of MK2 kinase domain, which may make p38 cannot properly bind to MK2, resulting in a decrease in the phosphorylation of MK2.
After the treatment outlined in the figure legends, cells were lysed using 1× sodium dodecyl sulfate (SDS) solution. The lysates were then subjected to SDS‐polyacrylamide gel electrophoresis for separation, followed by transferring onto nitrocellulose membranes. […] Protein bands were detected using an enhanced chemiluminescence detection reagent (Thermo Fisher Scientific).

[4] = system: p-Hsp27; experiment: Cellular washout assay, p-Hsp27 by western blot; assay type: cell-based; details: 1 h pretreatment, then LPS
Protocol: as §1
Furthermore, to validate the irreversible mechanism of action of compound 11 at the cellular level, we performed a cellular washout assay and assessed p‐Hsp27 levels. The established MK2 irreversible inhibitor CC‐99677 served as positive control, while the reversible ATP‐competitive inhibitor PF‐3644022 was used as negative control. […] In contrast, only 1 h after PF‐3644022 washout, p‐Hsp27 level was totally recovered (Figure 4I).
After the treatment outlined in the figure legends, cells were lysed using 1× sodium dodecyl sulfate (SDS) solution. The lysates were then subjected to SDS‐polyacrylamide gel electrophoresis for separation, followed by transferring onto nitrocellulose membranes. The membranes were incubated with primary antibodies specific to phospho‐MK2, phospho‐Hsp27, MK2, Hsp27, GAPDH, and β‐actin (Cell Signaling Technology), followed by horseradish peroxidase‐conjugated anti‐mouse or anti‐rabbit IgG secondary antibodies. Protein bands were detected using an enhanced chemiluminescence detection reagent (Thermo Fisher Scientific).

[5] = molecular target: T1, MK2 (Homo sapiens, UniProt P49137); experiment: MK2 kinase inhibition assay (ADP-Glo); assay type: biochemical; details: for IC50: mean ± SD of two independent tests
T1 sequence (P49137 whole entry): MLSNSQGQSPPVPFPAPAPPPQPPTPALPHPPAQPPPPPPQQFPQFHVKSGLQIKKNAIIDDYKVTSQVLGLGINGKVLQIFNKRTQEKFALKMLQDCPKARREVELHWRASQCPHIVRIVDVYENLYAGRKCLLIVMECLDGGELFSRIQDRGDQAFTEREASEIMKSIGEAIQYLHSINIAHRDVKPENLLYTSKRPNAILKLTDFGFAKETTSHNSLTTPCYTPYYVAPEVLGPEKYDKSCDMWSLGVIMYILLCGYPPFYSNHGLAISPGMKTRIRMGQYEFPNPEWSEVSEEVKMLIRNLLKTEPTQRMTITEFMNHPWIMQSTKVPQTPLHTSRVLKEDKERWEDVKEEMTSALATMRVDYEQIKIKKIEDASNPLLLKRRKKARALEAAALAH
Protocol: To assess the impact of various compounds on MK2 kinase activity, we utilized the ADP‐Glo Assay Kit (Promega) following the manufacturer's instructions. Luminescence measurements were taken using a SpectraMax Paradigm reader. The inhibition percentage was calculated using the following formula: ((specific signalDMSO control − specific signal inhibitor)/(specific signalDMSO control)) × 100%. The IC50 values were determined employing dose–response curve fitting via Prism (Graph Pad).

[6] = molecular target: T1, MK2; experiment: Kinase kinetic analysis of irreversible inhibition (Mobility Shift Assay, preincubation then 100-fold dilution); assay type: biochemical; details: preincubation at 100 times the IC50, monitored continuously
Description: To assess its role as an irreversible MK2 kinase inhibitor, we conducted a kinetic study on compound 11. The well‐known reversible ATP‐competitive MK2 inhibitor, PF‐3644022, served as a negative control. […] The kinase‐inhibitor mixture was subsequently diluted by a factor of 100 with a reaction buffer that included both substrate peptide and ATP. Under these circumstances, the activity of MK2 kinase was continuously monitored by assessing the phosphorylated substrate percentage. […] The enzyme activity curve almost overlapped with the curve of background group, which included only the substrate peptide without inhibitors and MK2 kinase.
In the kinase kinetic analysis to elucidate the irreversible inhibition of MK2 by compound 11, a Mobility Shift Assay was conducted. […] The EZ Reader (Caliper Life Sciences, MA) was then used to assess the kinase activity of the mixture, which was monitored continuously for 1 hour.

| SMILES | IC50 [5] | also measured |
| --- | --- | --- |
| Cc1cnc(-c2ccnc(C(C)(C)O)n2)cc1-n1c(C)cc(OCc2ncc(F)cc2F)c(Cl)c1=O [ATI-450] | – | potency for the p38α-MK2 complex relative to p38α-PRAK or p38α-ATF2 [1]: over 700 fold |
| Nc1ncnc2c1ncn2[C@@H]1O[C@H](COP(=O)(O)OP(=O)(O)OP(=O)(O)O)[C@@H](O)[C@H]1O [ATP] | – | ATP binding affinity to MK2 [2]: approximately 30 µM |
| CCOCc1cnc(Cl)nc1Oc1ccc2c(ccc3sc4c(c32)NC[C@@H](C)NC4=O)n1 [CC-99677, reference compound] | – | effect on MK2 phosphorylation at T334 site [3]: inhibited; time after inhibitor washout at which p-Hsp27 level recovered [4]: 12 h |
| Cc1ccc(-c2ccc3c(ccc4sc5c(c43)NC[C@@H](C)NC5=O)n2)cn1 [PF-3644022, reference compound] | 12.3 ± 1.3 nM | effect on MK2 phosphorylation at T334 site [3]: inhibited; MK2 kinase activity after 30 min preincubation with inhibitor and 100-fold dilution [6]: recovered gradually; time after inhibitor washout at which p-Hsp27 level recovered [4]: 1 h |
| C=CC(=O)Nc1cccc(-c2cc(-c3cc4c([nH]3)CCNC4=O)ccn2)c1 [compound 2] | 728 nM | – |
| CCC(=O)Nc1cccc(-c2cc(-c3cc4c([nH]3)CCNC4=O)ccn2)c1 [compound 3] | – | inhibition at 1 µM ([5]; read-out: inhibition of MK2 at 1 μM, 1 μM, inhibitory rate of two independent tests): ~30% |
| C=CC(=O)Nc1cc(OC)cc(-c2cc(-c3cc4c([nH]3)CCNC4=O)ccn2)c1 [compound 4] | 452 ± 45.3 nM | – |
| C=CC(=O)Nc1cc(-c2cc(-c3cc4c([nH]3)CCNC4=O)ccn2)ccc1OC [compound 5] | 36.9 ± 20.1 nM | – |
| C=CC(=O)Nc1cc(C)cc(-c2cc(-c3cc4c([nH]3)CCNC4=O)ccn2)c1 [compound 6] | 89.5 ± 15.3 nM | – |
| C=CC(=O)Nc1cc(-c2cc(-c3cc4c([nH]3)CCNC4=O)ccn2)ccc1C [compound 7] | 285 ± 97.5 nM | – |
| C=CC(=O)Nc1cc(-c2cc(-c3cc4c([nH]3)CCNC4=O)ccn2)cc(C(F)(F)F)c1 [compound 8] | 217 ± 4.8 nM | – |
| C=CC(=O)Nc1cc(-c2cc(-c3cc4c([nH]3)CCNC4=O)ccn2)ccc1C(F)(F)F [compound 9] | 52.1 ± 0.3 nM | – |
| C=CC(=O)Nc1cc(OC(F)(F)F)cc(-c2cc(-c3cc4c([nH]3)CCNC4=O)ccn2)c1 [compound 10] | 212 ± 8.3 nM | – |
| C=CC(=O)Nc1cc(-c2cc(-c3cc4c([nH]3)CCNC4=O)ccn2)cc(N(C)C)c1 [compound 12] | 121 ± 26.1 nM | – |
| C=CC(=O)Nc1cc(-c2cc(-c3cc4c([nH]3)CCNC4=O)ccn2)ccc1N(C)C [compound 13] | 113 ± 3.5 nM | – |
